From patent US20200157092A1, “[1,2,4]-TRIAZOLO [1,5-A]-PYRIMIDINYL DERIVATIVES SUBSTITUTED WITH PIPERIDINE, […] […] OGA INHIBITORS” (priority 2017, published 2020) come the findings set out here.

Molecules are shown by their SMILES.

For experiment [1], the target named is T1, recombinant human Meningioma Expressed Antigen 5 (MGEA5), also referred to as O-GlcNAcase (OGA) (Homo sapiens, UniProt O60502).
T1 construct: Full length OGA enzyme was purchased at OriGene (cat # TP322411); purchased OriGene TP322411
T1 sequence (O60502 1-916): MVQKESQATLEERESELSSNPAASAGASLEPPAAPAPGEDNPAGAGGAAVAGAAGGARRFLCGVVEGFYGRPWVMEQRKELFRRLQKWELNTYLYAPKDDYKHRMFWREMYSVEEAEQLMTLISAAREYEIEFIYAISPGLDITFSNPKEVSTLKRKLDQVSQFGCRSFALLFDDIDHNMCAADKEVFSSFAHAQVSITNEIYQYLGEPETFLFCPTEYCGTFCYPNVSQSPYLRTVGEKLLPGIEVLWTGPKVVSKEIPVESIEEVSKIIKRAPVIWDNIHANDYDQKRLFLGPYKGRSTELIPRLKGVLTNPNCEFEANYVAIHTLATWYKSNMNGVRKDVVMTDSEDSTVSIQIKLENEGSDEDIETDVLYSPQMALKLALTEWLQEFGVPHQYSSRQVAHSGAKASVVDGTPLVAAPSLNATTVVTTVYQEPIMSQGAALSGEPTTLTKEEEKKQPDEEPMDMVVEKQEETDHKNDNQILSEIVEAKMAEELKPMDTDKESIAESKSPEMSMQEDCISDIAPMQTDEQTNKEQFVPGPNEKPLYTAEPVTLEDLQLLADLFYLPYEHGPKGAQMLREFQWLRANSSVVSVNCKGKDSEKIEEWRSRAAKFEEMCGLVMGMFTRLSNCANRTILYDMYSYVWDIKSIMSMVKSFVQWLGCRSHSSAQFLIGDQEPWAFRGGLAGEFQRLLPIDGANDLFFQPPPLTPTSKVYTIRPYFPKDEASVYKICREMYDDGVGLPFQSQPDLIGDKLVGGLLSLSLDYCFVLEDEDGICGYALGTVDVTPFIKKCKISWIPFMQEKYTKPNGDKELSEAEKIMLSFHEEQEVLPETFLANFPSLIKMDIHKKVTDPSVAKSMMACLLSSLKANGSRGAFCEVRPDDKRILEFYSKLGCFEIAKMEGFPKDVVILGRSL
The experiment can be described thus: OGA biochemical assay: inhibition of FM-GlcNAc hydrolysis, fluorescence; protocol A (10 nM OGA, 1 h) or protocol B (2 nM OGA, 6 h). To be noted: Enzymatic protocol B (2 nM OGA, 6 h); for IC50: read-out: Enzymatic hOGA, pIC50 (converted). The protocol:
The hydrolysis FM-GlcNAc (Marker Gene technologies, cat # M1485) results in the formation of ß-D-N-glucosamineacetate and fluorescein. The fluorescence of the latter can be measured at excitation wavelength 485 nm and emission wavelength 538 nm. An increase in enzyme activity results in an increase in fluorescence signal. Full length OGA enzyme was purchased at OriGene (cat # TP322411). The enzyme was stored in 25 mM Tris.HCl, pH 7.3, 100 mM glycine, 10% glycerol at −20° C. […] The assay was performed in 200 mM Citrate/phosphate buffer supplemented with 0.005% Tween-20. 35.6 g Na2HPO4 2 H2O (Sigma, # C0759) were dissolved in 1 L water to obtain a 200 mM solution. […] The buffer to stop the reaction consists of a 500 mM Carbonate buffer, pH 11.0. […] OGA was used at a 10 nM (protocol A) or 2 nM (protocol B) concentration and FM-GlcNAc at a 100 uM final concentration. Dilutions were prepared in assay buffer.
Plates were pre-incubated for 60 min at room temperature and then 2 μl FM-GlcNAc substrate mix added. […] Plates were briefly centrifuged for 1 min at 1000 rpm and incubate at room temperature for 1 h (10 nM OGA, protocol A) or 6 h (2 nM OGA, protocol B). To stop the reaction 5 μl STOP buffer were added and plates centrifuge again 1 min at 1000 rpm. Fluorescence was quantified in the Thermo Scientific Fluoroskan Ascent or the PerkinElmer EnVision with excitation wavelength 485 nm and emission wavelength 538 nm.
For analysis a best-fit curve is fitted by a minimum sum of squares method. From this an IC50 value and Hill coefficient was obtained. High control (no inhibitor) and low control (saturating concentrations of standard inhibitor) were used to define the minimum and maximum values.

The target in a further experiment is T2, OGA (Homo sapiens, UniProt O60502).
T2 construct: HEK293 cells inducible for P301L mutant human Tau (isoform 2N4R) were established at Janssen; endogenous in cells; host or cells: HEK293 cells inducible for P301L mutant human Tau (2N4R)
T2 sequence (O60502 1-916): T1 sequence (O60502 1-916)
The experiment can be described thus: OGA cellular assay: immunocytochemical detection of O-GlcNAcylated proteins in HEK293 cells inducible for P301L mutant human Tau. In kind it is cell-based. As to conditions: for Emax: HEK293, read-out: Cellular Emax (%); for Cellular hOGA; pEC50 / Cellular Emax (%): HEK293 cells inducible for P301L mutant human Tau, 6 hours incubation; for Cellular Emax (%): maximum = Thiamet G 200 uM. An excerpt:
HEK293 cells inducible for P301L mutant human Tau (isoform 2N4R) were established at Janssen. Thiamet-G was used for both plate validation (high control) and as reference compound (reference EC50 assay validation). […] Inhibition of OGA will result in an increase of O-GlcNAcylated protein levels resulting in an increased signal in the experiment. […] ICC pictures are imaged with a Perkin Elmer Opera Phenix plate microscope and quantified with the provided software Perkin Elmer Harmony 4.1.
Cells were propagated in DMEM high Glucose (Sigma, # D5796) following standard procedures. […] At the day of compound test medium from assay plates was removed and replenished with 90 μl of fresh Assay Medium. 10 μl of compounds at a 10 fold final concentration were added to the wells. Plates were centrifuged shortly before incubation in the cell incubator for 6 hours. DMSO concentration was set to 0.2%. Medium is discarded by applying vacuum. For staining of cells medium was removed and cells washed once with 100 μl D-PBS (Sigma, # D8537). From next step onwards unless other stated assay volume was always 50 μl and incubation was performed without agitation and at room temperature. […] Before analysis samples were washed 2 times manually for 5 minutes in ICC base buffer.
Imaging is performed using Perkin Elmer Phenix Opera using a water 20× objective and recording 9 fields per well. Intensity readout at 488 nm is used as a measure of O-GlcNAcylation level of total proteins in wells. To assess potential toxicity of compounds nuclei were counted using the Hoechst staining. IC50-values are calculated using parametric non-linear regression model fitting. As a maximum inhibition Thiamet G at a 200 uM concentration is present on each plate. In addition, a concentration response of Thiamet G is calculated on each plate.

For `CC(=O)Nc1ncc(CN2CCCC(c3ccnc4cc[nH]c34)C2)s1` (racemic) [Product 15], in experiment [1], the Emax was found to be 97.8% and the IC50 was 37.2 nM. Also, at OGA, the EC50 is 12.3 nM and the Emax came out at 95.2%.

Take `CC(=O)Nc1ncc(CN2CCCC(c3nc(C)cc4ccn(C)c34)C2)s1` (centres unmarked) [Product 88]: in experiment [1], the Emax was determined as 101% and the IC50 is 83.2 nM. Besides, on OGA, the EC50 is 407 nM and the Emax came out at 57.4%.

On to `CC(=O)Nc1ncc(CN2CCC[C@H](c3ccnc4ccn(C)c34)C2)s1` (single isomer, unassigned) [Product 71], for which, in experiment [1], the Emax is 100% and the IC50 is 12.6 nM. In addition, at OGA, the EC50 is 87.1 nM and the Emax came to 79.2%.

As to `CC(=O)Nc1ncc(CN2CCC(Cc3cnc4ccn(C)c4c3)C2)s1` (centres unmarked) [Product 69], in experiment [1], the Emax stood at 99.6% and the IC50 was 3.02 nM. Besides, on OGA, the EC50 was 23.4 nM and the Emax is 108%.

For `c1cc(CC2CCN(Cc3ccc4nccnc4c3)C2)n2ccnc2c1` (centres unmarked) [Product 58], in experiment [1], the Emax was 97.3% and the IC50 is 245 nM. Moreover, on OGA, the EC50 is above 10000 nM and the Emax stood at 4.1%.

As to `CC(=O)Nc1ncc(CN2CCCC(Cc3cc(C)nc4ncnn34)C2)s1` (centres unmarked) [Product 46], in experiment [1], the Emax came out at 99.8% and the IC50 is 2.34 nM. For the same compound, on OGA, the midpoint of the response, the EC50, lay at 14.8 nM and the Emax turned out to be 114%.

Regarding `CC(=O)Nc1ncc(CN2CCC(Cc3cc(C)nc4ncnn34)C2)s1` (centres unmarked) [Product 48], in experiment [1], the Emax turned out to be 103% and the IC50 was 1.74 nM. Further, at OGA, a half-maximal effect (EC50) was put at 17 nM and the Emax stood at 104%.

Take `CC(=O)Nc1ncc(CN2CCCC(c3ccnc4nccn34)C2)s1` (racemic) [Product 10]: in experiment [1], the maximal response (Emax) was found to be 100% and the IC50 was 35.5 nM. Also, at OGA, the EC50 is 209 nM and the Emax was found to be 99%.

`CC(=O)Nc1ncc(CN2CCCC(Cc3cncc4nccn34)C2)s1` (centres unmarked) [Product 45]: in experiment [1], the Emax is 100% and the IC50 is 4.68 nM. Also, at OGA, the EC50 was 13.5 nM and the Emax is 96.9%.

Regarding `CC(=O)Nc1ncc(CN2CCCC(c3cccc4nccn34)C2)s1` (racemic) [Product 12], in experiment [1], the Emax is 105% and the IC50 is 10.7 nM. At OGA, the EC50 is 20.9 nM and the Emax came to 103%.

Take `CC(=O)Nc1ncc(CN2CCC[C@@H](c3cnc4ccn(C)c4c3)C2)s1` (single isomer, unassigned) [Product 79]: in experiment [1], the “Enzymatic Emax (%)” value came out at 102.15% and the “Enzymatic hOGA; pIC50” value came out at 8.14. At OGA, the “Cellular hOGA; pEC50” value is on record as 7.87 and the “Cellular Emax (%)” value is 101.35%.

Consider `CC(=O)Nc1ncc(CN2CCCC(c3ccc4ccn(C)c4n3)C2)s1` (centres unmarked) [Product 73], for which, in experiment [1], the Emax is 101% and the IC50 was 81.3 nM. Further, on OGA, the EC50 is 195 nM and the maximal effect (Emax) was 87.2%.

In the case of `CC(=O)Nc1ncc(CN2CCCC(Cc3cc(C)nc4ccnn34)C2)s1` (centres unmarked) [Product 44], in experiment [1], the Emax was 101% and the IC50 was 3.8 nM. Also, on OGA, the EC50 is 35.5 nM and the Emax was 129%.

For `CC(=O)Nc1ncc(CN2CCCC(Cc3c(F)c(C)nc4ncnn34)C2)s1` (centres unmarked) [Product 47], in experiment [1], the Emax was determined as 102% and the IC50 is 1.26 nM. Moreover, at OGA, the midpoint of the response, the EC50, lay at 15.5 nM and the maximum response (Emax) came out at 109%.

Take `CC(=O)Nc1ncc(CN2CCCC(Cc3cccc4nccn34)C2)s1` (centres unmarked) [Product 66]: in experiment [1], the Emax amounted to 101% and the IC50 is 29.5 nM. On OGA, the concentration for a half-maximal effect (EC50) was 18.2 nM and the Emax was 97.3%.

With `CC(=O)Nc1ncc(CN2CCCC(c3ccc4c(ccn4C)n3)C2)s1` (centres unmarked) [Product 100], in experiment [1], the Emax came to 98.5% and the IC50 was 309 nM. For the same compound, on OGA, a half-maximal response (EC50) required 195 nM and the Emax was determined as 85.7%.

With `CC(c1ccc2c(c1)OCO2)N1CCOC(c2ccnc3ncnn23)C1` (centres unmarked) [Product 55], in experiment [1], the Emax worked out at 51.8% and the IC50 is 9550 nM. In addition, on OGA, the EC50 is above 10000 nM and the Emax turned out to be 1.01%.

For the compound `Cc1cc(C2CCCN(C(C)c3ccc4c(c3)OCO4)C2)n2ccnc2n1` (centres unmarked) [Product 52], in experiment [1], the Emax worked out at 101% and the IC50 was 18.6 nM. Besides, on OGA, it took 2630 nM to reach a half-maximal effect (EC50) and the Emax came out at 131%.

As to `CC(=O)Nc1ncc(CN2CCCC(c3cc(C)nc4ccn(C)c34)C2)s1` (centres unmarked) [Product 86], in experiment [1], the “Enzymatic Emax (%)” value is listed as 102.93% and the “Enzymatic hOGA; pIC50” value was found to be 8.38. In addition, on OGA, the “Cellular hOGA; pEC50” value is given as 7.18 and the “Cellular Emax (%)” value is 100.91%.

As for `CC(=O)Nc1ncc(CN2CCCC(Cc3cnc4cc[nH]c4c3)C2)s1` (centres unmarked) [Product 97], in experiment [1], the Emax was 102% and the IC50 is 1.74 nM. Moreover, at OGA, it took 7.76 nM to reach a half-maximal effect (EC50) and the Emax worked out at 109%.

Turning to `CC(=O)Nc1ncc(CN2CCCC(c3cc(C)nc4cc[nH]c34)C2)s1` (centres unmarked) [Product 96], in experiment [1], the “Enzymatic Emax (%)” value was 99.16% and the “Enzymatic hOGA; pIC50” value is given as 6.15. In addition, on OGA, the “Cellular hOGA; pEC50” value was found to be 6.40 and the “Cellular Emax (%)” value is 70.38%.

`CC(=O)Nc1ncc(CN2CCCC(c3nc(C)cc4cc[nH]c34)C2)s1` (centres unmarked) [Product 91]: in experiment [1], the maximal effect (Emax) stood at 103% and the IC50 is 95.5 nM. On OGA, the EC50 is 44.7 nM and the Emax was 84.3%.

Regarding `CC(=O)Nc1ncc(CN2CC[C@H](Cc3cccc4nccn34)C2)s1` [Product 107], in experiment [1], the Emax came out at 101% and the IC50 is 8.13 nM. Also, on OGA, the EC50 was 55 nM and the Emax was 82%.

A word on the Emax: it is the maximal effect, on the per cent scale that the assay sets. The term EC50 denotes the concentration giving half of the maximal effect. A high value points to a less potent agent.
